Data from patent US20240100112A1, “TRADITIONAL CHINESE MEDICINE OINTMENT FOR PREVENTING AND TREATING MASTITIS IN DAIRY COWS, AND PREPARATION METHOD THEREOF” (Hunan University of Science and Engineering, priority 2022, published 2024).

Tested on: mastitis in dairy cows
Experiment: Treatment of dairy cows with mastitis; cure judged by sodium hydroxide curdled milk test
Assay type: in vivo
Conditions: dairy cows with mastitis (SMT detected); ointment 2 g externally twice a day for 5 days, or penicillin 100,000 IU breast perfusion; tested one day after stopping
Description: Fifty dairy cows with mastitis detected by Shanghai Mastitis Test (SMT) are selected from a dairy farm in Hunan Province, of which 20 cows are externally coated with the traditional Chinese medicine ointment for preventing and treating mastitis in dairy cows prepared in embodiment 1 and 20 cows are externally applied with the traditional Chinese medicine ointment for preventing and treating mastitis in dairy cows prepared in comparative example 1, with the dosage of 2 g each time, twice a day for 5 days. The remaining 10 cows are perfused with penicillin 100,000 IU after all the milk is discharged from their breasts, as a control group.
Cure standard: one day after stopping the ointments, if curdled milk is negative by the sodium hydroxide test, the cows are judged to be cured.

For `CC1(C)S[C@@H]2[C@H](NC(=O)Cc3ccccc3)C(=O)N2[C@H]1C(=O)O` [Control group, penicillin], the “Cows (head) with curdled milk being negative by sodium hydroxide test” value was 8 head and the “Cure rate (%)” value was 80%.
